{
  "source": "patent US11084829B2",
  "about": "“Ubiquitin-specific-processing protease 7 (USP7) modulators and uses thereof” (RAPT THERAPEUTICS, INC., priority 2018, dated 2021)",
  "data": [
    {"target": "USP7 (Homo sapiens, UniProt Q93009)", "sequence (Q93009 whole entry)": "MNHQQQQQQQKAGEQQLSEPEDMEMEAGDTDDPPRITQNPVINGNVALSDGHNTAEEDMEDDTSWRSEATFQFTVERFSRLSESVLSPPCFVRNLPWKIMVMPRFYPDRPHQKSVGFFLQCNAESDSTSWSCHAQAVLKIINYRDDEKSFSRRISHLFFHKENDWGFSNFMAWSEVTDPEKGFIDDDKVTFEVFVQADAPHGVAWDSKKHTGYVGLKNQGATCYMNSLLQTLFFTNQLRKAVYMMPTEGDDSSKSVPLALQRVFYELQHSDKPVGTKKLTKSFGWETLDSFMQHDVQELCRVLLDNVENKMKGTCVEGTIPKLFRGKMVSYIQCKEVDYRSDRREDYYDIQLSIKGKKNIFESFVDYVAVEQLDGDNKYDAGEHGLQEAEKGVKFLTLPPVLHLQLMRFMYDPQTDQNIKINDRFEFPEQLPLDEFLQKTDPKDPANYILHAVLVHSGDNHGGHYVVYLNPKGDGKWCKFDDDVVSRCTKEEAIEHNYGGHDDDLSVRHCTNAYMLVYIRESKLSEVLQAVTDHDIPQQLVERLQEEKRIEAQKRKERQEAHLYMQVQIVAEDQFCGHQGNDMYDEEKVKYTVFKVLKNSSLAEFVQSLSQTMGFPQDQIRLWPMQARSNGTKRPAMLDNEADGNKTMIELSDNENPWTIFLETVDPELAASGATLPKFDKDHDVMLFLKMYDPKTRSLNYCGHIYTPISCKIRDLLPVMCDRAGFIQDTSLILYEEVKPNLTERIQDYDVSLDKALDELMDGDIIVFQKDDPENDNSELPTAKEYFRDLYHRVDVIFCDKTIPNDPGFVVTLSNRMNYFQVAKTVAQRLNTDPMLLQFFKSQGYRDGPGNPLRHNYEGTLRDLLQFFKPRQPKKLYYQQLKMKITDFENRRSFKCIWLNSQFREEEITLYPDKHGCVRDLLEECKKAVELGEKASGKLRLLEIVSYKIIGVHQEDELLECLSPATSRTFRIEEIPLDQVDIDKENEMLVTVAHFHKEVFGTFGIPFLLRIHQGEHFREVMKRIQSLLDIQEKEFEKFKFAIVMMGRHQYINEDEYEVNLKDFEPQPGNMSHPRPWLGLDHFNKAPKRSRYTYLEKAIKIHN", "assay": "USP7 inhibitory potency (IC50)", "format": "biochemical", "procedure": "Activity for compounds described herein is provided in Table 2, wherein potency levels are provided as follows: (Potency: USP7 IC50: A<0.01 μM; B=0.01-0.1 μM; C=>0.1 μM.", "units": {"IC50": "nM"}, "values": [
      {"smiles": "Cc1cc(Cl)cc(-c2ncnc3cc(CN4C(=O)CCC4=O)sc23)c1C[C@H]1CNCC(C)(C)O1", "note": "[Example 212, (S)-1-((4-(5-chloro-2-((6,6-dimethylmorpholin-2-yl)methyl)-3-methylphenyl)thieno[3,2-d]pyrimidin-6-yl)methyl)pyrrolidine-2,5-dione]", "IC50": "10 to 100"},
      {"smiles": "Cc1cc(Cl)cc(-c2ccnc3cc(CN4C(=O)CCC4=O)sc23)c1CN1[C@H](C)CNC[C@H]1C", "note": "[Example 27, 1-((7-(5-chloro-2-(((2R,6R)-2,6-dimethylpiperazin-1-yl)methyl)-3-methylphenyl)thieno[3,2-b]pyridin-2-yl)methyl)pyrrolidine-2,5-dione]", "IC50": "10 to 100"},
      {"smiles": "Cc1cc(Cl)cc(-c2ncnc3cc(Cn4c(=O)c(F)cn(C(C)C)c4=O)sc23)c1CC1CNCCO1", "note": "(centres unmarked) [Example 168, 3-((4-(5-chloro-3-methyl-2-(morpholin-2-ylmethyl)phenyl)thieno[3,2-d]pyrimidin-6-yl)methyl)-5-fluoro-1-isopropylpyrimidine-2,4(1H,3H)-dione]", "IC50": "< 10"},
      {"smiles": "Cc1cc(Cl)cc(-c2ccnc3cc(CN4C(=O)CCC4=O)sc23)c1CN1C[C@@H](C)N[C@H](C)C1", "note": "[Example 26, 1-((7-(5-chloro-2-(((3R,5R)-3,5-dimethylpiperazin-1-yl)methyl)-3-methylphenyl)thieno[3,2-b]pyridin-2-yl)methyl)pyrrolidine-2,5-dione]", "IC50": "< 10"},
      {"smiles": "Cc1cc(Cl)cc(-c2ccnc3cc(CN4C(=O)C5CC5C4=O)sc23)c1CC1CNCC2(CC2)O1", "note": "(centres unmarked) [Example 132, 3-((7-(2-((4-oxa-7-azaspiro[2.5]octan-5-yl)methyl)-5-chloro-3-methylphenyl)thieno[3,2-b]pyridin-2-yl)methyl)-3-azabicyclo[3.1.0]hexane-2,4-dione]", "IC50": "< 10"},
      {"smiles": "Cc1cc(Cl)cc(-c2ncnc3cc(CN4C(=O)CNC4=O)sc23)c1C[C@@H]1CNCCO1", "note": "[Example 243, (R)-3-((4-(5-chloro-3-methyl-2-(morpholin-2-ylmethyl)phenyl)thieno[3,2-d]pyrimidin-6-yl)methyl)imidazolidine-2,4-dione]", "IC50": "< 10"},
      {"smiles": "Cc1cc(Cl)cc(-c2ncnc3cc(CN4C(=O)CCC45CC5)sc23)c1CC1CNCC(C)(C)O1", "note": "(centres unmarked) [Example 203, 4-((4-(5-chloro-2-((6,6-dimethylmorpholin-2-yl)methyl)-3-methylphenyl)thieno[3,2-d]pyrimidin-6-yl)methyl)-4-azaspiro[2.4]heptan-5-one]", "IC50": "10 to 100"},
      {"smiles": "Cc1cc(Cl)cc(-c2ccnc3c(F)c(CN4C(=O)CC[C@@H]4CF)sc23)c1C[C@@H]1CNCCO1", "note": "[Example 149, (R)-1-((7-(5-chloro-3-methyl-2-(((R)-morpholin-2-yl)methyl)phenyl)-3-fluorothieno[3,2-b]pyridin-2-yl)methyl)-5-(fluoromethyl)pyrrolidin-2-one]", "IC50": "10 to 100"},
      {"smiles": "Cc1cc(Cl)cc(-c2ccnc3cc(CN4C(=O)CCC4=O)sc23)c1CN1[C@@H](C)CN(C(C)C)C[C@@H]1C", "note": "[Example 30, 1-((7-(5-chloro-2-(((2S,6S)-4-isopropyl-2,6-dimethylpiperazin-1-yl)methyl)-3-methylphenyl)thieno[3,2-b]pyridin-2-yl)methyl)pyrrolidine-2,5-dione]", "IC50": "< 10"},
      {"smiles": "Cc1cc(Cl)cc(-c2ncnc3cc(CN4C(=O)C5CC5C4=O)sc23)c1CN1CCNC[C@@H]1C", "note": "(stereo partly drawn) [Example 51, 3-((4-(5-chloro-3-methyl-2-(((S)-2-methylpiperazin-1-yl)methyl)phenyl)thieno[3,2-d]pyrimidin-6-yl)methyl)-3-azabicyclo[3.1.0]hexane-2,4-dione]", "IC50": "< 10"},
      {"smiles": "Cc1cc(Cl)cc(-c2ncnc3cc(CN4C(=O)CC[C@@H]4CO)sc23)c1CC1CNCC(C)(C)O1", "note": "(stereo partly drawn) [Example 206, (5R)-1-((4-(5-chloro-2-((6,6-dimethylmorpholin-2-yl)methyl)-3-methylphenyl)thieno[3,2-d]pyrimidin-6-yl)methyl)-5-(hydroxymethyl)pyrrolidin-2-one]", "IC50": "10 to 100"}
    ]}
  ]
}
